Experimental data reported in PMC9146163, “Novel Au Carbene Complexes as Promising Multi-Target Agents in Breast Cancer Treatment” (Pharmaceuticals, 2022).

Experiments:
Format in all cases: cell-based, human
Hek-293 cells = test: MTT assay, normal Hek-293; conditions: up to the concentration of 200 μM
[1] = tested on: NF-κB in MDA-MB-231 cells; test: NF-κB immunofluorescence, MDA-MB-231; conditions: IC50 value, 24 h
Procedure: (§1) The MitoTracker Deep Red FM probe (MitoTracker Mitochondrion-Selective Probes, Invitrogen European Headquarters, Paisley, PA4 9RF, UK) was used for mitochondrial staining, as previously described. For immunofluorescence analysis, the cells were seeded and further processed, as reported by Iacopetta et al.. The primary antibodies used were: rabbit anti-β-Actin and vimentin (Santa Cruz Biotechnology, Dallas, TX, USA), mouse anti cytochrome c and NF-κB p65 (Abcam, Cambridge, UK), diluted 1:100 in bovine serum albumin (BSA) 2% overnight at 4 °C. The secondary antibodies were: Alexa Fluor® 488 conjugate goat-anti-rabbit and Alexa Fluor® 568 conjugate goat-anti-mouse (Thermo Fisher Scientific, MA, USA), diluted 1:500 and incubated for 2h at 37 °C. DAPI 0.2 μg/mL (Sigma Aldrich, Milan, Italy) was used for nuclei staining. […] All the images were acquired and processed using the LAS-X software.

[2] = tested on: cytochrome c in MCF-7 cells; test: Mitochondria staining and cytochrome c detection, MCF-7; conditions: IC50 value, 24 h
Procedure: as §1

NF-κB in MCF-7 cells = test: NF-κB immunofluorescence, MCF-7; conditions: IC50 value, 24 h
Procedure: as §1

vimentin in MCF-7 cells = test: Vimentin expression (immunofluorescence), MCF-7; conditions: fluorescence quantification; IC50 value, 24 h
Procedure: as §1
Protein lysates underwent the SDS-PAGE process, as already defined. Then lysates were resolved on a 7.5% SDS polyacrylamide gel, transferred to a nitrocellulose membrane, and probed with antibodies against vimentin and GAPDH (Santa Cruz Biotechnology, Dallas, TX, USA). […] The images are representative of three independent experiments.

| Structure (SMILES) | cytotoxicity against the normal Hek-293 cells (in words) (Hek-293 cells) | NF-κB translocation, MDA-MB-231 [1] | cytochrome c localization, MCF-7 [2] | NF-κB translocation, MCF-7 (NF-κB in MCF-7 cells) | reduction of vimentin expression with respect to the control, MCF-7 (vimentin in MCF-7 cells) |
| --- | --- | --- | --- | --- | --- |
| Cn1ccn(CC([O-])c2ccccc2)[c]1=[Au+]=[c]1n(C)ccn1CC([O-])c1ccccc1.[Cl-].[Na+].[Na+] (centres unmarked) [Compound 1] | complete lack of cytotoxicity | reduced the translocation of NF-κB from the cytoplasm to the nucleus | – | – | – |
| CC(=O)[O-].Cn1c(Cl)c(Cl)n(CC(O)c2ccccc2)[c]1=[Au+]=[c]1n(C)c(Cl)c(Cl)n1CC(O)c1ccccc1 (centres unmarked) [Compound 6, Bis [4,5-dichloro-(N-methyl, N’(2-hydroxy-2-phenyl-ethyl)imidazole-2-ylidine]gold(I)] acetate] | – | – | cytochrome c is localized within mitochondria | reduced the translocation of NF-κB from the cytoplasm to the nucleus | two-fold |
